Reference: ChEMBL document CHEMBL1132123, “The synthesis and biological activity of a series of 2,4-diaminopyrido[2,3-d]pyrimidine based antifolates as antineoplastic and antiarthritic agents” (Bioorg Med Chem Lett, 1999)

Assays:
[1] = Vmax/Km value was determined
Dihydrofolate reductase = biological target: T1, Dihydrofolate reductase (Homo sapiens, UniProt P00374); experiment: Inhibitory activity against recombinant human dihydrofolate reductase (DHFR)
T1 sequence (P00374 whole entry): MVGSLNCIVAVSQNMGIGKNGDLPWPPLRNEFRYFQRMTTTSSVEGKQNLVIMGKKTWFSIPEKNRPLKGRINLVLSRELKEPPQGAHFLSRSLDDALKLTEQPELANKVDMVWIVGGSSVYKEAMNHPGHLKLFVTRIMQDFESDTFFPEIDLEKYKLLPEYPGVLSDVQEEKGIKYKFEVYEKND

Thymidylate synthase [2] = biological target: T2, Thymidylate synthase (Homo sapiens, UniProt P04818); experiment: Inhibitory activity against recombinant human Thymidylate synthase enzyme
T2 sequence (P04818 whole entry): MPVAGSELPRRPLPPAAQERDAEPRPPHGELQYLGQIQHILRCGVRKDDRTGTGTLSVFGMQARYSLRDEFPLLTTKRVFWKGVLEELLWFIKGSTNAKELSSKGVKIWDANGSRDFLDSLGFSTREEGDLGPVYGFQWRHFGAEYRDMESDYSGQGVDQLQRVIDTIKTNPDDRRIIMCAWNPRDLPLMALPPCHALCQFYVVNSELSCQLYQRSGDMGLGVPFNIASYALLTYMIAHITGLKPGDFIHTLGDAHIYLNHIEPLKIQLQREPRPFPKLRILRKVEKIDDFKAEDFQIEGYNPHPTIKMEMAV

[3] = biological target: T3, Trifunctional purine biosynthetic protein adenosine-3 (Mus musculus, UniProt Q64737); experiment: Inhibitory activity against murine glycinamide ribonucleotide formyltransferase (GARFT) enzyme
T3 sequence (Q64737 whole entry): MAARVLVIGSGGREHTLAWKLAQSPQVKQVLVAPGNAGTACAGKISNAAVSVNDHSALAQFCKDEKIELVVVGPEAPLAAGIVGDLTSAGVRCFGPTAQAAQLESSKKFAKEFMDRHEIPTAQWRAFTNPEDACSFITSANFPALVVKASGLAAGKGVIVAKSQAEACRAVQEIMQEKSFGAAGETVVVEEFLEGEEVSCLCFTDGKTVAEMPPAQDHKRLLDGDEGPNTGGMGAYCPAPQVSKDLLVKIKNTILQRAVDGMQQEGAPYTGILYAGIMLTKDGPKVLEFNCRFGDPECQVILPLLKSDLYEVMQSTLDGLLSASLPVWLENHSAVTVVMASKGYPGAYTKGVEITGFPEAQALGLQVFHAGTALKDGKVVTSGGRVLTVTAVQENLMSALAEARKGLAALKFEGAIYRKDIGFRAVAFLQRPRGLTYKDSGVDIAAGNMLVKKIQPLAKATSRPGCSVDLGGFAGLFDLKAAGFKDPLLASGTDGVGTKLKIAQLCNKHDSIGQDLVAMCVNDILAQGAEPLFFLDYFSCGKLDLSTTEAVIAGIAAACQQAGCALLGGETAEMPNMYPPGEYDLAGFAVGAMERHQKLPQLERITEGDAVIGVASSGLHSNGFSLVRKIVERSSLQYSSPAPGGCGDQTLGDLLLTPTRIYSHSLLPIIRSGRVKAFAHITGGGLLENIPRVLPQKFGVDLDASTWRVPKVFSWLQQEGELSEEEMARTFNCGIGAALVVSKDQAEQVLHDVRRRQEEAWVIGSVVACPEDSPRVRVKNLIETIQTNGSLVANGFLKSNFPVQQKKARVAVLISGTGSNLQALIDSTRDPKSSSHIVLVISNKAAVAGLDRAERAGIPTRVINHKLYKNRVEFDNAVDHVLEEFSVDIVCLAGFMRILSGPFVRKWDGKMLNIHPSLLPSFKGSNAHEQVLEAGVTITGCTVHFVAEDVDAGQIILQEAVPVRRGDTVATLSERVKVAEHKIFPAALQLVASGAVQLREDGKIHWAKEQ

Rattus norvegicus [4] = experiment: Compound evaluated for inhibition of rat paw swelling after ip administration at 0.30 mg/kg in delayed phase; type: functional; conditions: route intraperitoneal
Rattus norvegicus [5] = experiment: Compound evaluated for inhibition of rat paw swelling after ip administration at 0.30 mg/kg and expressed as net swelling in mL of displaced water in delayed phase; type: functional; conditions: dose 0.3 mg/kg; route intraperitoneal
Rattus norvegicus [6] = experiment: Compound evaluated for inhibition of rat paw swelling after ip administration at 0.125 mg/kg and expressed as net swelling in mL of displaced water in acute phase; type: functional; conditions: route intraperitoneal
Rattus norvegicus [7] = experiment: Compound evaluated for inhibition of rat paw swelling after ip administration at 0.125 mg/kg and expressed as net swelling in mL of displaced water in delayed phase; type: functional; conditions: route intraperitoneal
Rattus norvegicus [8] = experiment: Compound evaluated for inhibition of rat paw swelling after ip administration at 0.06 mg/kg in delayed phase; type: functional; conditions: route intraperitoneal
Rattus norvegicus [9] = experiment: Compound evaluated for inhibition of rat paw swelling after ip administration at 0.125 mg/kg in delayed phase; type: functional; conditions: route intraperitoneal
Thymidylate synthase [10] = biological target: T2, Thymidylate synthase; experiment: Inhibitory activity against recombinant human Thymidylate synthase
Rattus norvegicus [11] = experiment: Compound evaluated for inhibition of rat paw swelling after ip administration at 0.06 mg/kg and expressed as net swelling in mL of displaced water in acute phase; type: functional; conditions: route intraperitoneal
Rattus norvegicus [12] = experiment: Compound evaluated for inhibition of rat paw swelling after ip administration at 0.125 mg/kg in acute phase; type: functional; conditions: route intraperitoneal
Rattus norvegicus [13] = experiment: Compound evaluated for inhibition of rat paw swelling after ip administration at 0.06 mg/kg in acute phase; type: functional; conditions: route intraperitoneal
Rattus norvegicus [14] = experiment: Compound evaluated for inhibition of rat paw swelling after ip administration at 0.06 mg/kg and expressed as net swelling in mL of displaced water in delayed phase; type: functional; conditions: route intraperitoneal
[15] = substrate: C[C@](CCC(=O)O)(NC(=O)c1ccc(CCC2CNc3nc(N)nc(N)c3C2)o1)C(=O)O; experiment: (§1) Maximum rate of metabolism by hog liver folyl-poly-glutamate synthetase (FPGS) was determined; conditions: Sus scrofa
[16] = substrate: C[C@](CCC(=O)O)(NC(=O)c1ccc(CCC2CNc3nc(N)nc(N)c3C2)cc1)C(=O)O; experiment: as §1; conditions: Sus scrofa
[17] = substrate: C[C@](CCC(=O)O)(NC(=O)c1ccc(CCC2CNc3nc(N)nc(N)c3C2)s1)C(=O)O; experiment: as §1; conditions: Sus scrofa
[18] = substrate: Nc1nc(O)c2c(n1)NCC(CCc1ccc(C(=O)NC(CCC(=O)O)C(=O)O)cc1)C2; experiment: as §1; conditions: Sus scrofa
[19] = substrate: C[C@](CCC(=O)O)(NC(=O)c1ccc(CCC2CNc3nc(N)nc(N)c3C2)o1)C(=O)O; experiment: (§2) Michaelis-Menten constant for hog liver folyl-poly-glutamate synthetase (FPGS); conditions: Sus scrofa
[20] = substrate: C[C@](CCC(=O)O)(NC(=O)c1ccc(CCC2CNc3nc(N)nc(N)c3C2)cc1)C(=O)O; experiment: as §2; conditions: Sus scrofa
[21] = substrate: C[C@](CCC(=O)O)(NC(=O)c1ccc(CCC2CNc3nc(N)nc(N)c3C2)s1)C(=O)O; experiment: as §2; conditions: Sus scrofa
[22] = substrate: Nc1nc(O)c2c(n1)NCC(CCc1ccc(C(=O)NC(CCC(=O)O)C(=O)O)cc1)C2; experiment: as §2; conditions: Sus scrofa

CN(Cc1cnc2nc(N)nc(N)c2n1)c1ccc(C(=O)N[C@@H](CCC(=O)O)C(=O)O)cc1
Vmax / Km [1]: 4.3

C[C@](CCC(=O)O)(NC(=O)c1ccc(CCC2CNc3nc(N)nc(N)c3C2)o1)C(=O)O (some centres not stated)
Ki (Dihydrofolate reductase): 9.87 nM | Ki (Thymidylate synthase [2]): > 5 µM | Ki [3]: 0.71 µM | Vmax / Km [1]: 9.2

C[C@]12CCC(=O)C=C1CCC1[C@@H]2[C@@H](O)C[C@@]2(C)[C@H]1CC[C@]2(O)C(=O)CO (single isomer, unassigned) [HYDROCORTISONE]
inhibition in vivo at 0.3 mg/kg (Rattus norvegicus [4]): 36% | Net Swelling (Rattus norvegicus [5]): 0.09

Nc1nc(O)c2c(n1)NCC(CCc1ccc(C(=O)NC(CCC(=O)O)C(=O)O)cc1)C2 (configuration not stated)
Vmax / Km [1]: 60

C[C@](CCC(=O)O)(NC(=O)c1ccc(CCC2CNc3nc(N)nc(N)c3C2)s1)C(=O)O (some centres not stated)
Ki (Dihydrofolate reductase): 0.69 nM | Ki (Thymidylate synthase [2]): > 5 µM | Ki [3]: 9.2 µM | Vmax / Km [1]: 98

C[C@](CCC(=O)O)(NC(=O)c1ccc(CCC2CNc3nc(N)nc(N)c3C2)cc1)C(=O)O (some centres not stated)
Ki (Dihydrofolate reductase): 0.29 nM | Net Swelling (Rattus norvegicus [6]): 0.55 | Net Swelling (Rattus norvegicus [7]): 0.12 | inhibition in vivo at 0.06 mg/kg (Rattus norvegicus [8]): 0% | inhibition in vivo at 0.125 mg/kg (Rattus norvegicus [9]): 14% | Ki [3]: 56 µM | Ki (Thymidylate synthase [10]): > 5 µM | Net Swelling (Rattus norvegicus [11]): 0.82 | inhibition in vivo at 0.125 mg/kg (Rattus norvegicus [12]): 35% | inhibition in vivo at 0.06 mg/kg (Rattus norvegicus [13]): 0% | Vmax / Km [1]: 40 | Net Swelling (Rattus norvegicus [14]): 0.15

B1: Folylpolyglutamate synthase, mitochondrial (Homo sapiens), Q05932 (protein)
chain: MSRARSHLRAALFLAAASARGITTQVAARRGLSAWPVPQEPSMEYQDAVRMLNTLQTNAGYLEQVKRQRGDPQTQLEAMELYLARSGLQVEDLDRLNIIHVTGTKGKGSTCAFTECILRSYGLKTGFFSSPHLVQVRERIRINGQPISPELFTKYFWRLYHRLEETKDGSCVSMPPYFRFLTLMAFHVFLQEKVDLAVVEVGIGGAYDCTNIIRKPVVCGVSSLGIDHTSLLGDTVEKIAWQKGGIFKQGVPAFTVLQPEGPLAVLRDRAQQISCPLYLCPMLEALEEGGPPLTLGLEGEHQRSNAALALQLAHCWLQRQDRHGAGEPKASRPGLLWQLPLAPVFQPTSHMRLGLRNTEWPGRTQVLRRGPLTWYLDGAHTASSAQACVRWFRQALQGRERPSGGPEVRVLLFNATGDRDPAALLKLLQPCQFDYAVFCPNLTEVSSTGNADQQNFTVTLDQVLLRCLEHQQHWNHLDEEQASPDLWSAPSPEPGGSASLLLAPHPPHTCSASSLVFSCISHALQWISQGRDPIFQPPSPPKGLLTHPVAHSGASILREAAAIHVLVTGSLHLVGGVLKLLEPALSQ
Vmax [15]: 696 nM/h/mg | Vmax [16]: 1190 nM/h/mg | Vmax [17]: 1140 nM/h/mg | Vmax [18]: 977 nM/h/mg | Km [19]: 75.3 µM | Km [20]: 28.2 µM | Km [21]: 11.6 µM | Km [22]: 16.4 µM
